The structures appear in SMILES notation.

Data set [1] deals with T1, Amine oxidase [flavin-containing] A (Homo sapiens, UniProt P21397).
T1 sequence (P21397 whole entry): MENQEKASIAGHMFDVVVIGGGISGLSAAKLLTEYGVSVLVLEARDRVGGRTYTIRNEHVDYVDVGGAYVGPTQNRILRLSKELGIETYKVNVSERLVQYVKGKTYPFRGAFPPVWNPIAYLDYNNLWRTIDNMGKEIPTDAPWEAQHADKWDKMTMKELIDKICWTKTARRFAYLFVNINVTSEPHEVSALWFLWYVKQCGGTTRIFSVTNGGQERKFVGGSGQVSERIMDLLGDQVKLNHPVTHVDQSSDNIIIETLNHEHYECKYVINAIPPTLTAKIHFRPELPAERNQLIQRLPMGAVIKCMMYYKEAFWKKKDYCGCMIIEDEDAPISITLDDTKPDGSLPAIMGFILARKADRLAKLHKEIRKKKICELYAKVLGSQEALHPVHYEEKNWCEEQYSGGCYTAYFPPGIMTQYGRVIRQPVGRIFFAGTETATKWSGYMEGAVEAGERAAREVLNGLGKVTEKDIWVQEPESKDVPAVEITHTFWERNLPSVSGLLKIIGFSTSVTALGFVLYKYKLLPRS
Nature of the data set: Inhibition of human MAO-A assessed as inhibition of H2O2 production using p-tyramine as substrate.

For data set [2], the target named is T2, Amine oxidase [flavin-containing] B (Homo sapiens, UniProt P27338).
T2 sequence (P27338 whole entry): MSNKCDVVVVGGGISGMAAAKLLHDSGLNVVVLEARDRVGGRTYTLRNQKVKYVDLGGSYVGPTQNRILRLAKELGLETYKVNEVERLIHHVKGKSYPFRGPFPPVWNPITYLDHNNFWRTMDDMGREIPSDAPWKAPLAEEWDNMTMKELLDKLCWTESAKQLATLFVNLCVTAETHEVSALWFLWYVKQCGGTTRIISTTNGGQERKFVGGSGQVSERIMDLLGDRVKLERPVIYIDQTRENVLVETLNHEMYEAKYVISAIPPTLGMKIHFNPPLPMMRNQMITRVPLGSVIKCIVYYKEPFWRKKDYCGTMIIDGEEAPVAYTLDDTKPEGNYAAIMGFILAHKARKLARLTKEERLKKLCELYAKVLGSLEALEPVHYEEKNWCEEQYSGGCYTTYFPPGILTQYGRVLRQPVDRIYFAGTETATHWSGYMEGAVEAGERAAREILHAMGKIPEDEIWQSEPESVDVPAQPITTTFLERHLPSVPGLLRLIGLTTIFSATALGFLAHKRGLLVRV
The experiment in a line: Inhibition of human MAO-B assessed as inhibition of H2O2 production using p-tyramine as substrate.

Another data set is filed under the species Homo sapiens. The experiment in a line: Selectivity index, ratio of IC50 for inhibition of human MAO-A to IC50 for inhibition of human MAO-B.
Data set [3] concerns the target T1, Amine oxidase [flavin-containing] A. The experiment in a line: Inhibition of human MAO-A assessed as inhibition of H2O2 production using p-tyramine as substrate at 100 uM.
The target of data set [4] is T2, Amine oxidase [flavin-containing] B. The experiment in a line: Mixed competitive inhibition of human MAO-B using p-tyramine as substrate by Lineweaver-Burk plot analysis.
For data set [5] the target is unchanged. Nature of the data set: Reversible inhibition of human MAO-B assessed as enzyme residual activity using p-tyramine as substrate measured after dialysis by dialysis method.
For data set [6] the target is unchanged. The experiment in a line: Inhibition of human MAO-B assessed as enzyme residual activity using p-tyramine as substrate.

Turning to `COc1cc(S)c(/N=N/c2cccc(C#N)c2C#N)cc1OC`, the IC50 in data set [1] is 17.8 µM; in data set [2], 80.3 µM. Besides, in the data set filed under Homo sapiens, the Ratio IC50 came to 0.22.
On the same counts, the results for `N#Cc1ccc(/N=N/c2cc(-c3ccccc3)ccc2O)cc1C#N` are 29.4 µM, 0.7 µM and 42.
In the case of `N#Cc1ccc(/N=N/c2ccc(O)c(-c3ccccc3)c2)cc1C#N`, the results for the IC50 in data set [1] and in data set [2] were 0.78 µM and 1.12 µM, respectively. Also, the Ratio IC50 in the data set filed under Homo sapiens came out at 0.69.
`COc1ccc(/N=N/c2ccc(C#N)c(C#N)c2)cc1-c1ccccc1`: the IC50 in data set [1] stood at 0.89 µM; in data set [2], 1.44 µM. Also, in the data set filed under Homo sapiens, the Ratio IC50 is 0.62.
Consider `CC(=O)Oc1ccc(-c2ccccc2)cc1/N=N/c1ccc(C#N)c(C#N)c1`, for which the IC50 in data set [2] worked out at 3.82 µM. Besides, the inhibition at 100 µM in data set [3] was found to be 27%. In addition, in the data set listed under Homo sapiens, the Ratio IC50 is greater than 26.2.
Turning to `COc1cc(S)c(/N=N/c2ccc(C#N)c(C#N)c2)cc1OC`, the IC50 in data set [1] came out at 55.6 µM; in data set [2], 0.74 µM. Besides, the Ratio IC50 in the data set listed under Homo sapiens amounted to 75.2. Besides, the Ki in data set [4] came to 0.0775 µM. The values for the Activity in data set [5] and in data set [6] were 83.3% and 34.8%, respectively.

Source of the values: ChEMBL document CHEMBL5104158, “Synthesis and human monoamine oxidase inhibitory activity of novel C2-, C3- and C4-substituted phthalonitriles” (Bioorg Med Chem Lett, 2022).
